Assay results taken from patent US4348264A, “Photocatalyzed process for producing carbapenams and carbapen-2-ems” (Pfizer Inc., priority 1981, dated 1982).
In brackets after ≈: the same amount, converted by molar mass. Where two headings read alike, the source gives them in different places.

How the values were obtained:
Type in all cases: cell-based
Pseudomonas aeruginosa = assay: Serial dilution-tube method, MIC; conditions: Pseudomonas aeruginosa; brain heart infusion broth; read-out: Minimum Inhibitory Concentration
Serratia marcescens = assay: Serial dilution-tube method, MIC; conditions: Serratia marcescens; brain heart infusion broth; read-out: Minimum Inhibitory Concentration
[1] = system: Staphylococcus aureus (Antibiotic Resistant); assay: Standard disc-plate method, zone of inhibition; conditions: Staphylococcus aureus; 25 microgram discs; antibiotic resistant
From the text: (§1) The utility of the various compounds as intermediates to other compounds of the present invention will be evident from the preceding discussion. The antibacterial activity of these compounds, reflecting their utility in the control of susceptible bacterial infections in man and animals, as animal feed additives for promotion of growth, or as preservatives of materials biodegraded by susceptible microorganisms, is best measured by the standard disc-plate method routinely employed in clinical laboratories for determining the sensitivity of microorganisms to antimicrobial substances. Sensitivity discs are prepared by dipping a standard 6.25 mm. paper disc into a solution of the compound to be tested (conc. 1 mg./ml.) in a volatile solvent (e.g. methylene chloride) and the disc dried, producing discs containing approximately 25 microg. of the compound. The discs are placed on the surface of agar growth media seeded with the test microorganism, previously plated into Petri dishes. The plates are incubated overnight at 35°-37° C. Activity of the test compound is reflected by a zone of inhibition of bacterial growth around the test disc. The diameter of this zone provides a quantitative measure of the activity of the antibacterial substance. The activity of various compounds of the present invention is summarized in Table I. For comparison, results obtained with 10 microg. discs of ampicillin and penicillin G are included as positive controls.

Bacillus subtilis = assay: Standard disc-plate method, zone of inhibition; conditions: Bacillus subtilis; 25 microgram discs
From the text: as §1

Staphylococcus aureus [2] = assay: Standard disc-plate method, zone of inhibition; conditions: Staphylococcus aureus; 25 microgram discs
From the text: as §1

Staphylococcus aureus [3] = assay: Serial dilution-tube method, MIC; conditions: Staphylococcus aureus
Proteus morgani = assay: Serial dilution-tube method, MIC; conditions: brain heart infusion broth; read-out: Minimum Inhibitory Concentration
[4] = system: Staphylococcus aureus (Antibiotic Resistant); assay: Serial dilution-tube method, MIC; parameters: key to synergistic effect with ampicillin: Shows a synergistic effect when tested 1:1 with ampicillin; conditions: for MIC: Staphylococcus aureus, brain heart infusion broth, read-out: Minimum Inhibitory Concentration; for synergistic effect with ampicillin: tested 1:1 with ampicillin
[5] = system: Escherichia coli (Antibiotic Resistant); assay: Serial dilution-tube method, MIC; parameters: key to synergistic effect with cefazolin: b: Shows a synergistic effect when tested 1:1 with cefazolin; conditions: for MIC: Escherichia coli, brain heart infusion broth, read-out: Minimum Inhibitory Concentration
Escherichia coli [6] = assay: Serial dilution-tube method, MIC; conditions: Escherichia coli; brain heart infusion broth; read-out: Minimum Inhibitory Concentration
Citrobacter diversus = assay: Serial dilution-tube method, MIC; conditions: Citrobacter koseri; brain heart infusion broth; read-out: Minimum Inhibitory Concentration
Klebsiella pneumoniae = assay: Serial dilution-tube method, MIC; conditions: Klebsiella pneumoniae; brain heart infusion broth; read-out: Minimum Inhibitory Concentration
Enterobacter cloacae = assay: Serial dilution-tube method, MIC; conditions: Enterobacter cloacae; brain heart infusion broth; read-out: Minimum Inhibitory Concentration
Escherichia coli [7] = assay: Standard disc-plate method, zone of inhibition; conditions: Escherichia coli, 25 microgram discs
From the text: as §1

Vibrio percolans = assay: Standard disc-plate method, zone of inhibition; conditions: Comamonas terrigena, 25 microgram discs
From the text: as §1

Micrococcus luteus = assay: Standard disc-plate method, zone of inhibition; conditions: Micrococcus luteus; 25 microgram discs
From the text: as §1

[8] = brain heart infusion broth, read-out: Minimum Inhibitory Concentration

| SMILES | MIC (Pseudomonas aeruginosa) [µg/mL] | MIC (Serratia marcescens) [µg/mL] | zone of inhibition at 25 µg/disc [1] [mm] | zone of inhibition at 25 µg/disc (Bacillus subtilis) [mm] | zone of inhibition at 25 µg/disc (Staphylococcus aureus [2]) [mm] | MIC (Staphylococcus aureus [3]; [8]) [µg/mL] | MIC (Staphylococcus aureus [3]; serial dilution tube test, read-out: minimum inhibitory concentration) [µg/mL] | MIC (Proteus morgani) [µg/mL] | MIC [4] [µg/mL] | synergistic effect with ampicillin [4] | MIC [5] [µg/mL] | synergistic effect with cefazolin ([5]; tested 1:1 with cefazolin) | MIC (Escherichia coli [6]) [µg/mL] | MIC (Citrobacter diversus) [µg/mL] | MIC (Klebsiella pneumoniae) [µg/mL] | MIC (Enterobacter cloacae) [µg/mL] | zone of inhibition at 25 µg/disc (Escherichia coli [7]) [mm] | zone of inhibition at 25 µg/disc (Vibrio percolans) [mm] | zone of inhibition at 25 µg/disc (Micrococcus luteus) [mm] |
| --- | --- | --- | --- | --- | --- | --- | --- | --- | --- | --- | --- | --- | --- | --- | --- | --- | --- | --- | --- |
| CC1C(=O)C2CC(=O)N2C1C(=O)OCOC(=O)C(C)(C)C (stereo not drawn) [H H POM CH3 O I, Pivaloyloxymethyl 2-Methyl-1-oxocarbapenam-3-carboxylate] | > 200 | > 200 | 0 | 18 | 18 | > 200 | > 200 | > 200 | > 200 | a | > 200 | b | > 200 | > 200 | > 200 | > 200 |  |  |  |
| Cc1onc(-c2ccccc2)c1C(=O)NC1C(=O)N2C(C(=O)OCOC(=O)C(C)(C)C)C(C)C(O)C12 (stereo not drawn) [MPI H POM CH3 H OH I, Pivaloyloxymethyl 1-Hydroxy-2-methyl-6-(5-methyl-3-phenylisoxazole-4-carboxamido)carbapenam-3-carboxylate] | > 200 | > 200 | 14 | 16 | 15 | 100 (≈ 200 µM) |  | > 200 | 100 |  | > 200 |  | > 200 | > 200 | > 200 | > 200 | 0 | 13 |  |
| CC(=O)OC1C(C)C(C(=O)OCOC(=O)C(C)(C)C)N2C(=O)C(NC(=O)COc3ccccc3)C12 (stereo not drawn) [PMA H POM CH3 H OAc I, Pivaloyloxymethyl 1-Acetoxy-2-methyl-6-(2-phenoxyacetamido)carbapenam-3-carboxylate] | > 200 | > 200 | 0 | 16 | 11 | > 200 |  | > 200 | > 200 |  | > 200 |  | > 200 | > 200 | > 200 | > 200 | 0 |  | 0 |
| CC1C(=O)C2C(NC(=O)COc3ccccc3)C(=O)N2C1C(=O)OCOC(=O)C(C)(C)C (stereo not drawn) [PMA H POM CH3 O I, Pivaloyloxymethyl 2-Methyl-1-oxo-6-(2-phenoxyacetamido)carbapenam-3-carboxylate] | > 200 | > 200 | 12 | 21 |  |  |  | > 200 | > 200 |  | > 200 |  | > 200 | > 200 | > 200 | > 200 | 0 |  | 15 |
| COC1(NC(=O)COc2ccccc2)C(=O)N2C(C(=O)OCOC(=O)C(C)(C)C)C(C)C(O)C21 (stereo not drawn) [PMA OMe POM CH3 H OH I, pivaloyloxymethyl 1-hydroxy-6-methoxy-2-methyl-6-(2-phenoxyacetamido)carbapenam-3-carboxylate] | > 200 | > 200 | 0 | 11 | 23 | > 200 |  | > 200 | > 200 |  | > 200 |  | > 200 | > 200 | > 200 | > 200 | 0 | 0 |  |
| COC1(NC(=O)COc2ccccc2)C(=O)N2C(C(=O)OCOC(=O)C(C)(C)C)C(C)C(=O)C21 (stereo not drawn) [PMA OMe POM CH3 O I, Pivaloyloxymethyl 6-Methoxy-2-methyl-1-oxo-6-(2-phenoxyacetamido)carbapenam-3-carboxylate] | > 200 | > 200 | 0 | 11 | 0 | > 200 |  | > 200 | > 200 | a | > 200 |  | > 200 | > 200 | > 200 | > 200 | 0 | 0 |  |
